From patent publication US12527325B2, “Pesticidally active diazine-amide compounds” (SYNGENTA CROP PROTECTION AG, priority 2019, dated 2026)

Tests used:
Assay type in all cases: in vivo
[1] = test system: Chilo suppressalis; test: Example B4: Chilo suppressalis (Striped Rice Stemborer); details: 144 h, application rate of 200 ppm, artificial diet, L2 larvae, 6 days after infestation, read-out: control in at least one of the three categories (mortality, anti-feedant or growth inhibition)
Method: Example B4: Chilo suppressalis (Striped Rice Stemborer)
24-well microtiter plates with artificial diet were treated with aqueous test solutions prepared from 10′000 ppm DMSO stock solutions by pipetting. After drying, the plates were infested with L2 larvae (6-8 per well). The samples were assessed for mortality, anti-feeding effect, and growth inhibition in comparison to untreated samples 6 days after infestation. Control of Chilo suppressalis by a test sample is given when at least one of the categories mortality, anti-feedant effect, and growth inhibition is higher than the untreated sample.

[2] = test system: Plutella xylostella; test: Example B5: Plutella xylostella (Diamond Back Moth); details: 192 h, application rate of 200 ppm, 24-well artificial diet, eggs, 8 days after infestation, read-out: control in at least one of the two categories (mortality or growth inhibition)
Method: Example B5: Plutella xylostella (Diamond Back Moth)
24-well microtiter plates with artificial diet were treated with aqueous test solutions prepared from 10′000 ppm DMSO stock solutions by pipetting. After drying, Plutella eggs were pipetted through a plastic stencil onto a gel blotting paper and the plate was closed with it. The samples were assessed for mortality and growth inhibition in comparison to untreated samples 8 days after infestation.

[3] = test system: Spodoptera littoralis; test: Example B9: Spodoptera littoralis (Egyptian Cotton Leaf Worm), cotton leaf disc spray; details: foliar, 72 h, application rate of 200 ppm, sprayed cotton leaf discs, L1 larvae, 3 days after infestation, read-out: control in at least one of the three categories (mortality, anti-feedant or growth inhibition)
[4] = test system: Euschistus heros; test: Example B2: Euschistus heros (Neotropical Brown Stink Bug); details: 120 h, application rate of 200 ppm, sprayed soybean leaves, N2 nymphs, 5 days after infestation, read-out: control in at least one of the two categories (mortality or growth inhibition)
Method: Example B2: Euschistus heros (Neotropical Brown Stink Bug)
Soybean leaves on agar in 24-well microtiter plates were sprayed with aqueous test solutions prepared from 10′000 ppm DMSO stock solutions. After drying the leaves were infested with N2 nymphs. The samples were assessed for mortality and growth inhibition in comparison to untreated samples 5 days after infestation.

[5] = test system: Diabrotica balteata; test: Example B1: Diabrotica balteata (Corn Root Worm); details: 96 h, application rate of 200 ppm, sprayed maize sprouts, L2 larvae, 4 days after infestation, read-out: control in at least one of the two categories (mortality or growth inhibition)
Method: Example B1: Diabrotica balteata (Corn Root Worm)
Maize sprouts placed onto an agar layer in 24-well microtiter plates were treated with aqueous test solutions prepared from 10′000 ppm DMSO stock solutions by spraying. After drying, the plates were infested with L2 larvae (6 to 10 per well). The samples were assessed for mortality and growth inhibition in comparison to untreated samples 4 days after infestation.

[6] = test system: Plutella xylostella; test: Example B12: Plutella xylostella (Diamondback Moth), 96-well artificial diet; details: 216 h, application rate of 500 ppm, eggs, 9 days after infestation
Method: Example B12: Plutella xylostella (Diamondback Moth)
96-well microtiter plates containing artificial diet were treated with aqueous test solutions, prepared from 10′000 ppm DMSO stock solutions, by a liquid handling robot. After drying, eggs (˜30 per well) were infested onto a netted lid which was suspended above the diet. The eggs hatch and L1 larvae move down to the diet. The samples were assessed for mortality 9 days after infestation.

[7] = test system: Myzus persicae; test: Example B8: Myzus persicae (Green Peach Aphid): Intrinsic Activity; details: 120 h, test rate of 12 ppm, 24-well sucrose solution under Parafilm, 5 days after infestation
Text: Example B8: Myzus persicae (Green Peach Aphid): Intrinsic Activity
Test compounds prepared from 10′000 ppm DMSO stock solutions were applied by pipette into 24-well microtiter plates and mixed with sucrose solution. The plates were closed with a stretched Parafilm. A plastic stencil with 24 holes was placed onto the plate and infested pea seedlings were placed directly on the Parafilm. The infested plate was closed with a gel blotting paper and another plastic stencil and then turned upside down. The samples were assessed for mortality 5 days after infestation.

[8] = test system: Myzus persicae; test: Example B7: Myzus persicae (Green Peach Aphid): Systemic Activity; details: 144 h, test rate of 24 ppm, roots of pea seedlings in test solution, 6 days
Method: Example B7: Myzus persicae (Green Peach Aphid): Systemic Activity
Roots of pea seedlings infested with an aphid population of mixed ages were placed directly into aqueous test solutions prepared from 10′000 DMSO stock solutions. The samples were assessed for mortality 6 days after placing seedlings into test solutions.

CC(NC(=O)c1cc(C(F)(F)F)cc(C2(C#N)CC2)c1)c1nccnc1-c1ncc(C2CC2)cn1 (stereo not shown) [P3, 3-(1-cyanocyclopropyl)-N-[1-[3-(5-cyclopropylpyrimidin-2-yl)pyrazin-2-yl]ethyl]-5-(trifluoromethyl) benzamide]
≥ 80%: percent control (mortality, anti-feedant effect or growth inhibition) at 200 ppm [1] | percent control (mortality or growth inhibition) at 200 ppm [2] | percent control (mortality, anti-feedant effect or growth inhibition) at 200 ppm [3] | percent control (mortality or growth inhibition) at 200 ppm [4]

Cc1cnc(-c2nccnc2C(C)NC(=O)c2cc(C(F)(F)F)nc(C3(C#N)CC3)c2)nc1 (stereo not shown) [P2, 2-(1-cyanocyclopropyl)-N-[1-[3-(5-methylpyrimidin-2-yl)pyrazin-2-yl]ethyl]-6-(trifluoromethyl)pyridine-4-carboxamide]
≥ 80%: percent control (mortality, anti-feedant effect or growth inhibition) at 200 ppm [1] | percent control (mortality or growth inhibition) at 200 ppm [2] | percent control (mortality, anti-feedant effect or growth inhibition) at 200 ppm [3] | percent control (mortality or growth inhibition) at 200 ppm [4]

CC(NC(=O)c1cc(Cl)nc(C(F)(F)F)c1)c1nccnc1-c1ncccn1 (stereo not shown) [P1, 2-chloro-N-[1-(3-pyrimidin-2-ylpyrazin-2-yl)ethyl]-6-(trifluoromethyl)pyridine-4-carboxamide]
≥ 80%: percent control (mortality or growth inhibition) at 200 ppm [5] | percent control (mortality, anti-feedant effect or growth inhibition) at 200 ppm [1] | percent control (mortality or growth inhibition) at 200 ppm [2] | percent control (mortality or growth inhibition) at 200 ppm [4]

Cc1cnc(-c2nccnc2C(C)NC(=O)c2cc(C(F)(F)F)cc(C(C)(C)C#N)c2)nc1 (stereo not shown) [P48, 3-(1-cyano-1-methyl-ethyl)-N-[1-[3-(5-methylpyrimidin-2-yl)pyrazin-2-yl]ethyl]-5-(trifluoromethyl)benzamide]
≥ 80%: percent control (mortality, anti-feedant effect or growth inhibition) at 200 ppm [1] | percent control (mortality or growth inhibition) at 200 ppm [2] | percent control (mortality, anti-feedant effect or growth inhibition) at 200 ppm [3] | percent control (mortality or growth inhibition) at 200 ppm [4]

CC(NC(=O)c1cc(C2CC2C(F)(F)F)cc(C(F)(F)F)c1)c1nccnc1-c1ncccn1 (stereo not shown) [P37, N-[1-(3-pyrimidin-2-ylpyrazin-2-yl)ethyl]-3-(trifluoromethyl)-5-[2-(trifluoromethyl)cyclopropyl] benzamide]
≥ 80%: mortality at 500 ppm [6] | percent control (mortality or growth inhibition) at 200 ppm [5] | percent control (mortality, anti-feedant effect or growth inhibition) at 200 ppm [1] | mortality at 12 ppm [7] | percent control (mortality or growth inhibition) at 200 ppm [2] | percent control (mortality, anti-feedant effect or growth inhibition) at 200 ppm [3]

CC(NC(=O)c1cc(C2CC2)cc(C(F)(F)F)c1)c1nccnc1-c1ncccn1 (stereo not shown) [P41, 3-cyclopropyl-N-[1-(3-pyrimidin-2-ylpyrazin-2-yl)ethyl]-5-(trifluoromethyl)benzamide]
≥ 80%: percent control (mortality or growth inhibition) at 200 ppm [5] | percent control (mortality, anti-feedant effect or growth inhibition) at 200 ppm [1] | mortality at 12 ppm [7] | percent control (mortality or growth inhibition) at 200 ppm [2] | percent control (mortality, anti-feedant effect or growth inhibition) at 200 ppm [3]

C[C@H](NC(=O)c1cc(C(F)(F)F)cc(C(F)(F)C2CC2)c1)c1nccnc1-c1ccc(Br)cn1 [P42, N-[(1S)-1-[3-(5-bromo-2-pyridyl)pyrazin-2-yl]ethyl]-3-[cyclopropyl(difluoro)methyl]-5-(trifluoromethyl)benzamide]
≥ 80%: mortality at 500 ppm [6] | percent control (mortality or growth inhibition) at 200 ppm [5] | percent control (mortality, anti-feedant effect or growth inhibition) at 200 ppm [1] | percent control (mortality or growth inhibition) at 200 ppm [2] | percent control (mortality, anti-feedant effect or growth inhibition) at 200 ppm [3]

CC(NC(=O)c1cc(C(F)(F)F)cc(C(F)(F)C2CC2)c1)c1nccnc1-c1ccccn1 (stereo not shown) [P20, 3-[cyclopropyl (difluoro)methyl]-N-[1-[3-(2-pyridyl)pyrazin-2-yl]ethyl]-5-(trifluoromethyl) benzamide]
≥ 80%: mortality at 500 ppm [6] | percent control (mortality or growth inhibition) at 200 ppm [5] | percent control (mortality, anti-feedant effect or growth inhibition) at 200 ppm [1] | percent control (mortality or growth inhibition) at 200 ppm [2] | percent control (mortality, anti-feedant effect or growth inhibition) at 200 ppm [3]

CC(NC(=O)c1cc(C2CC2)cc(C(F)(F)F)c1)c1nccnc1-c1ccc(F)cn1 (stereo not shown) [P40, 3-cyclopropyl-N-[1-[3-(5-fluoro-2-pyridyl)pyrazin-2-yl]ethyl]-5-(trifluoromethyl)benzamide]
≥ 80%: mortality at 500 ppm [6] | percent control (mortality or growth inhibition) at 200 ppm [5] | percent control (mortality, anti-feedant effect or growth inhibition) at 200 ppm [1] | percent control (mortality or growth inhibition) at 200 ppm [2] | percent control (mortality, anti-feedant effect or growth inhibition) at 200 ppm [3]

CC(NC(=O)c1cc(C(F)(F)F)nc(C2(C#N)CC2)c1)c1nccnc1-c1ncc(Br)cn1 (stereo not shown) [P55, N-[1-[3-(5-bromopyrimidin-2-yl)pyrazin-2-yl]ethyl]-2-(1-cyanocyclopropyl)-6-(trifluoromethyl)pyridine-4-carboxamide]
≥ 80%: percent control (mortality or growth inhibition) at 200 ppm [5] | percent control (mortality, anti-feedant effect or growth inhibition) at 200 ppm [1] | mortality at 12 ppm [7] | percent control (mortality or growth inhibition) at 200 ppm [2] | percent control (mortality, anti-feedant effect or growth inhibition) at 200 ppm [3] | percent control (mortality or growth inhibition) at 200 ppm [4]

CC(NC(=O)c1cc(C(F)(F)F)cc(C(C)(C)C#N)c1)c1nccnc1-c1ncccn1 (stereo not shown) [P50, 3-(1-cyano-1-methyl-ethyl)-N-[1-(3-pyrimidin-2-ylpyrazin-2-yl)ethyl]-5-(trifluoromethyl)benzamide]
≥ 80%: percent control (mortality or growth inhibition) at 200 ppm [5] | mortality at 24 ppm [8] | percent control (mortality, anti-feedant effect or growth inhibition) at 200 ppm [1] | mortality at 12 ppm [7] | percent control (mortality or growth inhibition) at 200 ppm [2] | percent control (mortality, anti-feedant effect or growth inhibition) at 200 ppm [3] | percent control (mortality or growth inhibition) at 200 ppm [4]

CC(NC(=O)c1cc(C(F)(F)F)cc(C(F)(F)C2CC2)c1)c1nccnc1-c1ccc(Br)cn1 (stereo not shown) [P21, N-[1-[3-(5-bromo-2-pyridyl)pyrazin-2-yl]ethyl]-3-[cyclopropyl(difluoro)methyl]-5-(trifluoromethyl) benzamide]
≥ 80%: mortality at 500 ppm [6] | percent control (mortality or growth inhibition) at 200 ppm [2] | percent control (mortality or growth inhibition) at 200 ppm [4]

CC(NC(=O)c1cc(C(F)(F)F)cc(C(F)(F)C2CC2)c1)c1nccnc1-c1ncccn1 (stereo not shown) [P30, 3-[cyclopropyl(difluoro)methyl]-N-[1-(3-pyrimidin-2-ylpyrazin-2-yl)ethyl]-5-(trifluoromethyl)benzamide]
≥ 80%: percent control (mortality or growth inhibition) at 200 ppm [5] | percent control (mortality, anti-feedant effect or growth inhibition) at 200 ppm [1] | mortality at 12 ppm [7] | percent control (mortality or growth inhibition) at 200 ppm [2] | percent control (mortality, anti-feedant effect or growth inhibition) at 200 ppm [3] | percent control (mortality or growth inhibition) at 200 ppm [4]
